Measured values published in patent US5147888A, “N-terminal indolyy indolylalkylaminodiol β-amino acid derivatives” (G. D. Searle & Co., priority 1991, dated 1992).
Square brackets hold non-standard residues; d marks the D form. Peptide text beside a SMILES is read from it. * marks the point of attachment. Sta = CC(C)C[C@H](N)[C@@H](O)CC(=O)O; Isovaleryl = CC(C)CC(=O)*

Assays:
[1] = molecular target: T1, human renin (Homo sapiens, UniProt P00797); experiment: in vitro human renin inhibition assay (angiotensin I determined by radioimmunoassay); type: biochemical; conditions: pH 7.4, 37° C., two hours; for inhibition at 1 µM: 10^-6 M
T1 construct: purchased National Institute for Biological Standards, London
T1 sequence (P00797 67-406): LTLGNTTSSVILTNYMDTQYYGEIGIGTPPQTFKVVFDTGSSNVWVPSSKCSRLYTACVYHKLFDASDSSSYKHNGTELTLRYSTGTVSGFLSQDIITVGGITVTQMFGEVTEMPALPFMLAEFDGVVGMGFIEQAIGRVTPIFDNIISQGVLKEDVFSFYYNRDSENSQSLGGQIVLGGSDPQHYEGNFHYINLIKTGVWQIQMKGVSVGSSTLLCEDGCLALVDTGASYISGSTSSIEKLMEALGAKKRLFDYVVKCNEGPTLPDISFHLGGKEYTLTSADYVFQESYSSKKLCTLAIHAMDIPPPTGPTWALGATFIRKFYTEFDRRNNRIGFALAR
Experimental: Compounds of Formula I were evaluated as inhibitors of human renin in an in vitro assay. This human renin inhibition test has been previously described in detail [Papaioannou et al., Clinical and Experimental Hypertension, A7(9), 1243-1257 (1985)]. Human renin was obtained from the National Institute for Biologivcal Standards, London. An incubation mixture was prepared containing in a total volume of 0.25 mL 100 mM Tris-acetate buffer at pH 7.4, 25×10^-6 Goldblatt units of renin, 0.05 mL of plasma from human volunteers taking oral contraceptives,6.0 mM sodium EDTA, 2.4 mM phenylmethyl sulfonyl fluoride, 1.5 mM 8-hydroxyquinoline, 0.4 mg/mL BSA, and 0.024 mg/mL neomycin sulfate. This mixture was incubated for two hours at 37° C. in the presence or absence of renin inhibitors. The produced angiotensin I was determined by radioimmunoassay (New England Nuclear kit). Test compounds to be assayed were dissolved in DMSO and diluted with 100 mM Tris-acetate buffer at pH 7.4 containing 0.5% BSA to the appropriate Concentration. The final concentration of organic solvent in the reaction mixture was less than 1%. Control incubations at 37° C. were used to correct for effects of organic solvent on renin activity.

[2] = system: renin; conditions: cited from earlier work
[3] = system: pepsin; conditions: cited from earlier work
[4] = system: hog renin; conditions: after the injection of hog renin into nephrectomized rats; cited from earlier work
[5] = system: cathepsin D; conditions: cited from earlier work

IC50 [1]	Structure (SMILES)	also measured
520 nM	CC(C)C[C@H](O)[C@H](O)[C@H](CC1CCCCC1)NC(=O)[C@H](C)CNC(=O)c1cc(=O)c2ccccc2o1 [Example 26, N-[3-[[1S,1R*-(cyclohexylmethyl)-2S*,3R*-dihydroxy-5-methylhexyl]amino]-2S*-methyl-3-oxopropyl]-4-oxo-4H-1-benzopyran-2-carboxamide]	
1100 nM	CC(C)C[C@H](O)[C@H](O)[C@H](CC1CCCCC1)NC(=O)[C@H](C)CNC(=O)c1coc2ccccc2c1=O [Example 25, N-[3-[[1S,1R*-(cyclohexylmethyl)-2S*,3R*-dihydroxy-5-methyhexyl]amino]-2S*- methyl-3-oxopropyl]-4-oxo-4H-1-benzopyran-3-carboxamide]	
30 nM	CC(C)C[C@H](O)[C@H](O)[C@H](CC1CCCCC1)NC(=O)[C@H](C)CNC(=O)CCc1c[nH]c2ccccc12 [Example 22, N-[3-[[1S,1R*-(cyclohexylmethyl)-2S*,3R*-dihydroxy-5-methylhexyl]amino]-2S*-methyl-3-oxopropyl]-1H-indole3-propanamide]	
3000 nM	COc1cccc2cc(C(=O)NC[C@@H](C)C(=O)N[C@@H](CC3CCCCC3)[C@@H](O)[C@@H](O)CC(C)C)oc12 [Example 24, N-[3-[[1S,1R*-(cyclohexylmethyl)-2S*,3R*-dihydroxy-5-methylhexyl]amino]-2S*-methyl-3-oxopropyl]-7-methoxy-benzofuran-2-carboxamide]	
1800 nM	CC(C)C[C@H](O)[C@H](O)[C@H](CC1CCCCC1)NC(=O)[C@H](C)CNC(=O)c1cc2cccc(Cl)c2o1 [Example 23]	

Further lines, the compound ahead of its results:

Structure (SMILES)	IC50 [1]	also measured
CC(C)C[C@H](O)[C@H](O)[C@H](CC1CCCCC1)NC(=O)[C@H](C)CNC(=O)CCCC1CCCCC1 (relative stereo) [Example 11, N-[3-[[1S,1R*-(cyclohexylmethyl)-2S*,3R*-dihydroxy-5-methylhexyl]amino]-2S*-methyl-3-oxopropyl]cyclohexane-butanamide]	180 nM	
CC(C)CC(=O)N[C@H](C(=O)N[C@H](C(=O)N[C@@H](CC(C)C)[C@@H](O)CC(=O)N[C@@H](C)C(=O)N[C@@H](CC(C)C)[C@@H](O)CC(=O)O)C(C)C)C(C)C [pepstatin] (Isovaleryl-VV[Sta]A[Sta]-OH)		inhibitor of aspartyl proteases: renin [2]: inhibitor; inhibitor of aspartyl proteases: pepsin [3]: inhibitor; blood pressure reduction in vivo [4]: reduce blood pressure; inhibitor of aspartyl proteases: cathepsin D [5]: inhibitor
CC(C)C[C@H](O)[C@H](O)[C@H](CC1CCCCC1)NC(=O)[C@H](C)CNC(=O)CCCc1ccccc1 (relative stereo) [Example 6, N-[3-[[1S,1R*-(cyclohexylmethyl)-2S*,3R*-dihydroxy-5-methylhexyl]amino]-2S*-methyl-3-oxopropyl]benzenebutanamide]	125 nM	
CCn1cc(C(=O)NC[C@@H](C)C(=O)N[C@@H](CC2CCCCC2)[C@@H](O)[C@@H](O)CC(C)C)c(=O)c2ccc(C)nc21 [Example 16, N-[3-[[1S,1R*-(cyclohexylmethyl)-2S*,3R*-dihydroxy-5-methylhexylamino]amino]-2S*-methyl-3-oxopropyl-nalidixylamide]	450 nM	
CC(C)C[C@H](O)[C@H](O)[C@H](CC1CCCCC1)NC(=O)[C@H](C)CNC(=O)Cc1c[nH]c2ccccc12 [Example 21, N-[3-[[1S,1R*-(cyclohexylmethyl)-2S*,3R*-dihydroxy-5-methylhexyl]amino]-2S*-methyl-3-oxopropyl]-1H-indole3-acetamide]		inhibition at 1 µM [1]: 30%
COc1ccc(CCC(=O)NC[C@@H](C)C(=O)N[C@@H](CC2CCCCC2)[C@@H](O)[C@@H](O)CC(C)C)cc1 [Example 13, N-[3-[[1S,1R*-(cyclohexylmethyl)-2S*,3R*-dihydroxy-5-methylhexyl]amino]-2S*-methyl-3-oxopropyl]-4-methoxybenzenepropanamide]		inhibition at 0.5 µM ([1]; 5 × 10^-7 M): 30%
CC(C)C[C@H](O)[C@H](O)[C@H](CC1CCCCC1)NC(=O)[C@H](C)CNC(=O)c1c[nH]c2ccccc12 [Example 20, N-[3-[[1S,1R*-(cyclohexylmethyl)-2S*,3R*-dihydroxy-5-methylhexyl]amino]-2S*-methyl-3-oxopropyl]-1H-indole3-carboxamide]		inhibition at 10 µM ([1]; 10^-5 M): 27%
CC(C)C[C@H](O)[C@H](O)[C@H](CC1CCCCC1)NC(=O)[C@H](C)CN(C)C(=O)CCCc1ccccc1 (relative stereo) [Example 10, N-[3-[[1S,1R*-(cyclohexylmethyl)-2S*,3R*-dihydroxy-5-methylhexyl]amino-]-2S*-methyl-3-oxopropyl]-N-methyl-benzenebutanamide]	115 nM	
CC(C)C[C@H](O)[C@H](O)[C@H](CC1CCCCC1)NC(=O)[C@H](C)CN(C)C(=O)CCCC1CCCCC1 (relative stereo) [Example 12, N-[3-[[1S,1R*-(cyclohexylmethyl)-2S*,3R*-dihydroxy-5-methylhexyl]amino]-2S*-methyl-3-oxopropyl]-N-methyl-cyclohexanebutanamide]		inhibition at 1 µM [1]: 23%
CC(C)C[C@H](O)[C@H](O)[C@H](CC1CCCCC1)NC(=O)[C@H](C)CNC(=O)c1cc2ccccc2[nH]1 (relative stereo) [Example 7, N-[3-[[1S,1R*-(cyclohexylmethyl)-2S*,3R*-dihydroxy-5-methylhexyl]amino]-2S*-methyl-3-oxopropyl]-1H-indole-2-carboxamide]	26 nM	
